Reference: PubChem BioAssay AID248 (DTP/NCI, 2004)
Values joined by “and” are separate entries in the source; they are usually repeats but may differ in a detail not shown here. Equal values may be shown once. Toxic doses and inconclusive results are not listed. Rule as the data show it: active = T/C of 150% or more; inactive = T/C below 125%.

System: L1210 leukemia ip in BDF1 mice, survival T/C
Assay: NCI In Vivo Anticancer Drug Screen. Data for tumor model L1210 Leukemia (intraperitoneal) in B6D2F1 (BDF1) mice
Conditions: endpoint: mean survival time, higher = longer survival
In short: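 Each compound was tested against a transplantable tumor grown in mice. The endpoint was survival, with treated animals benchmarked against vehicle controls as a simple ratio.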

[1] = dose: 50.0 mg/kg/injection, schedule: Q01DX001 (ip), vehicle: saline
[2] = dose: 50.0 mg/kg/injection, schedule: Q04DX002 (ip), vehicle: saline with Tween-80
[3] = dose: 100.0 mg/kg/injection, schedule: Q04DX002 (ip), vehicle: saline with Tween-80
[4] = dose: 100.0 mg/kg/injection, schedule: Q01DX009 (ip), vehicle: Klucel (hydroxypropylcellulose) (HPC)
[5] = dose: 200.0 mg/kg/injection, schedule: Q01DX009 (ip), vehicle: Klucel (hydroxypropylcellulose) (HPC)
[6] = dose: 400.0 mg/kg/injection, schedule: Q01DX009 (ip), vehicle: Klucel (hydroxypropylcellulose) (HPC)
[7] = dose: 100.0 mg/kg/injection, schedule: Q04DX003 (ip), vehicle: saline
[8] = dose: 200.0 mg/kg/injection, schedule: Q04DX003 (ip), vehicle: saline
[9] = dose: 400.0 mg/kg/injection, schedule: Q04DX003 (ip), vehicle: saline
[10] = dose: 100.0 mg/kg/injection, schedule: Q01DX001 (ip), vehicle: saline
[11] = dose: 200.0 mg/kg/injection, schedule: Q01DX001 (ip), vehicle: saline
[12] = dose: 200.0 mg/kg/injection, schedule: Q01DX001 (ip), vehicle: carboxymethylcellulose (CMC)
[13] = dose: 100.0 mg/kg/injection, schedule: Q04DX002 (ip), vehicle: Klucel (hydroxypropylcellulose) (HPC)
[14] = dose: 200.0 mg/kg/injection, schedule: Q04DX002 (ip), vehicle: Klucel (hydroxypropylcellulose) (HPC)
[15] = dose: 400.0 mg/kg/injection, schedule: Q04DX002 (ip), vehicle: Klucel (hydroxypropylcellulose) (HPC)
[16] = dose: 100.0 mg/kg/injection, schedule: Q04DX003 (ip), vehicle: Klucel (hydroxypropylcellulose) (HPC)
[17] = dose: 200.0 mg/kg/injection, schedule: Q04DX003 (ip), vehicle: Klucel (hydroxypropylcellulose) (HPC)
[18] = dose: 400.0 mg/kg/injection, schedule: Q04DX003 (ip), vehicle: Klucel (hydroxypropylcellulose) (HPC)
[19] = dose: 200.0 mg/kg/injection, schedule: Q04DX002 (ip), vehicle: saline with Tween-80

Measured: T/C

O=C(CCCCCCCCC(=O)Nc1cccc(C2=NCCN2)c1)Nc1cccc(C2=NCCN2)c1
inactive: dose: 2.5 mg/kg/injection, schedule: Q01DX Z (ip), vehicle: saline 95 % of control | dose: 5.0 mg/kg/injection, schedule: Q01DX Z (ip), vehicle: saline 91 % of control | dose: 10.0 mg/kg/injection, schedule: Q01DX Z (ip), vehicle: saline 91 % of control

CN=[N+]([O-])C1(OC(C)=O)CCCC1
inactive: dose: 6.25 mg/kg/injection, schedule: Q01DX001 (ip), vehicle: saline 117 % of control | dose: 12.5 mg/kg/injection, schedule: Q01DX001 (ip), vehicle: saline 110 % of control | dose: 25.0 mg/kg/injection, schedule: Q01DX001 (ip), vehicle: saline 117 % of control | [1] 113 % of control

O=S(=O)(F)c1ccc(S)c(Cl)c1Cl
inactive: dose: 25.0 mg/kg/injection, schedule: Q04DX002 (ip), vehicle: saline with Tween-80 102 % of control | [2] 91 % of control | [3] 89 % of control

N#Cc1nc(-c2ccccc2)c(-c2ccccc2)nc1C#N
inactive: [4] 97 % of control | [5] 98 % of control | [6] 96 % of control

COc1cccc2c1CCC1=C2CC2C(=O)C1CCC2(C)O (stereo unspecified)
inactive: dose: 100.0 mg/kg/injection, schedule: Q01DX009 (ip), vehicle: saline 109 % of control | [7] 94 % of control | dose: 200.0 mg/kg/injection, schedule: Q01DX009 (ip), vehicle: saline 108 % of control | [8] 119 % of control | dose: 400.0 mg/kg/injection, schedule: Q01DX009 (ip), vehicle: saline 101 % of control | [9] 110 % of control

O=[N+]([O-])c1ccc(OS(=O)(=O)CS(=O)(=O)Oc2ccc([N+](=O)[O-])cc2)cc1
inactive: [10] 109 % of control | [11] 114 % of control

O=C(O)c1ccc(=O)oc1
inactive: dose: 25.0 mg/kg/injection, schedule: Q01DX009 (ip), vehicle: Klucel (hydroxypropylcellulose) (HPC) 100 % of control | dose: 50.0 mg/kg/injection, schedule: Q01DX009 (ip), vehicle: Klucel (hydroxypropylcellulose) (HPC) 87 % of control | [4] 90 % of control

CC1(CCOCc2ccccc2)NC(=O)N(CCC#N)C1=O (stereo unspecified)
inactive: dose: 50.0 mg/kg/injection, schedule: Q01DX001 (ip), vehicle: carboxymethylcellulose (CMC) 102 % of control | dose: 100.0 mg/kg/injection, schedule: Q01DX001 (ip), vehicle: carboxymethylcellulose (CMC) 94 % of control | [12] 94 % of control | dose: 400.0 mg/kg/injection, schedule: Q01DX001 (ip), vehicle: carboxymethylcellulose (CMC) 91 % of control

CC12CCCCC1(O)CC(=O)CC2 (stereo unspecified)
inactive: [13] 101 % of control | [14] 99 % of control | [15] 108 % of control

O=C(Nc1cccc(Cl)c1)c1ccc(Cl)c(Cl)c1
inactive: [13] 110 % of control | [14] 113 % of control | [15] 93 % of control

O=C1C2C(C(=O)N1c1ccccc1)C(c1ccccc1)N(c1ccccc1)C2c1ccccc1 (stereo unspecified)
inactive: [1] 103 % of control | [10] 108 % of control | [11] 100 % of control | dose: 400.0 mg/kg/injection, schedule: Q01DX001 (ip), vehicle: saline 103 % of control

CCC(NC(=O)c1ccccc1)C(=O)O (stereo unspecified)
inactive: [16] 95 % of control | [17] 101 % of control | [18] 103 % of control

Cc1ccc(Nc2nc(N)nc(N)c2N=O)cc1Cl
inactive: dose: 100.0 mg/kg/injection, schedule: Q01DX Z (ip), vehicle: methylcellulose (MC) 104 % of control | dose: 200.0 mg/kg/injection, schedule: Q01DX Z (ip), vehicle: methylcellulose (MC) 89 % of control

CCCCN(CCCC)c1ccc(/C=C/c2ccnc3ccccc23)cc1
inactive: dose: 100.0 mg/kg/injection, schedule: Q01DX009 (ip), vehicle: carboxymethylcellulose (CMC) 101 % of control and 103 % of control | dose: 100.0 mg/kg/injection, schedule: Q04DX002 (ip), vehicle: carboxymethylcellulose (CMC) 102 % of control | dose: 100.0 mg/kg/injection, schedule: Q04DX003 (ip), vehicle: carboxymethylcellulose (CMC) 97 % of control | [12] 92 % of control | dose: 200.0 mg/kg/injection, schedule: Q01DX009 (ip), vehicle: carboxymethylcellulose (CMC) 101 % of control and 104 % of control | dose: 200.0 mg/kg/injection, schedule: Q04DX002 (ip), vehicle: carboxymethylcellulose (CMC) 108 % of control | dose: 200.0 mg/kg/injection, schedule: Q04DX003 (ip), vehicle: carboxymethylcellulose (CMC) 100 % of control | dose: 400.0 mg/kg/injection, schedule: Q01DX009 (ip), vehicle: carboxymethylcellulose (CMC) 101 % of control and 103 % of control | dose: 400.0 mg/kg/injection, schedule: Q04DX002 (ip), vehicle: carboxymethylcellulose (CMC) 102 % of control | dose: 400.0 mg/kg/injection, schedule: Q04DX003 (ip), vehicle: carboxymethylcellulose (CMC) 97 % of control | dose: 800.0 mg/kg/injection, schedule: Q01DX001 (ip), vehicle: carboxymethylcellulose (CMC) 92 % of control | dose: 1600.0 mg/kg/injection, schedule: Q01DX001 (ip), vehicle: carboxymethylcellulose (CMC) 88 % of control

CCOC(=O)NNC(N)=S
inactive: [4] 102 % of control | [16] 103 % of control | [5] 97 % of control | [17] 94 % of control | [6] 98 % of control | [18] 100 % of control

CC[Si](Cl)(CC)CCCl
inactive: [7] 98 % of control | [8] 97 % of control | [9] 117 % of control

CS(=O)(=O)Oc1ccccc1OS(C)(=O)=O
inactive: [3] 91 % of control | [19] 107 % of control

C1=NC(c2ccccc2)=CN(C2CCCCC2)C1(c1ccccc1)C1CCCCC1 (stereo unspecified)
inactive: [2] 99 % of control | [13] 92 % of control | [3] 105 % of control | [14] 98 % of control | [19] 96 % of control | [15] 98 % of control

O=C1C(c2ccccc2)=C(c2ccccc2)c2c1c(-c1ccccc1)c(-c1ccccc1)c(-c1ccccc1)c2-c1ccccc1
inactive: dose: 6.25 mg/kg/injection, schedule: Q01DX001 (ip), vehicle: saline with Tween-80 98 % of control | dose: 12.5 mg/kg/injection, schedule: Q01DX001 (ip), vehicle: saline with Tween-80 98 % of control | dose: 25.0 mg/kg/injection, schedule: Q01DX001 (ip), vehicle: saline with Tween-80 89 % of control and 91 % of control | dose: 200.0 mg/kg/injection, schedule: Q01DX001 (ip), vehicle: saline with Tween-80 90 % of control | dose: 400.0 mg/kg/injection, schedule: Q01DX001 (ip), vehicle: saline with Tween-80 87 % of control

CCCCN1CCN2C(=O)N(CC)CCC2C1 (stereo unspecified)
inactive: dose: 25.0 mg/kg/injection, schedule: Q04DX003 (ip), vehicle: saline 91 % of control | dose: 50.0 mg/kg/injection, schedule: Q04DX003 (ip), vehicle: saline 98 % of control | [10] 102 % of control | [7] 116 % of control
